Assay: PTX release by dialysis bag diffusion technique (HPLC)
Assay type: physicochemical
Conditions: 1:9 DMSO:PBS solution
Procedure: where mo (mg) is the initial amount of PTX used; mr (mg) is the residual amount of PTX in the loading solution; mNPs (g) is the […] used in the loading experiment. A dialysis bag diffusion technique was used for examining drug release behaviors. Briefly, PTX@NPs were dispersed in 1 mL of release solution (DMSO: PBS 1:9 v/v) and transferred to a dialysis bag (molecular weight cut off=14 kDa) and shaken in 5 mL of release solution at 37° C. At the predetermined time intervals, 200 μL of the solution was withdrawn and the same amount of fresh solution was added into the system. The released PTX content from PTX@NPs was determined by HPLC analysis. HPLC analyses were recorded on Agilent Technologies 1200 Series with ZORBAX SB-C18 column (Agilent, 5 μm, 4.6×250 mm). The mobile phase was water:acetonitrile (50:50 v/v). The separation was carried out at 30° C. The detection wavelength was 227 nm and a flow rate of 1.0 mL·min^−1 was employed. A sample volume of 20 μL was injected. Free PTX was used as a control to compare with PTX@NPs.

CC(=O)O[C@H]1C(=O)[C@@]2(C)[C@H]([C@H](OC(=O)c3ccccc3)[C@]3(O)C[C@H](OC(=O)[C@H](O)[C@@H](NC(=O)c4ccccc4)c4ccccc4)C(C)=C1C3(C)C)[C@]1(OC(C)=O)CO[C@@H]1C[C@@H]2O [free PTX, paclitaxel]
PTX released at the early stage of the release (37° C., dialysis bag): ~15%
release behavior (after the early stage): short-term release

Reference: patent publication US20240299314A1 (priority 2023, published 2024)
